{
  "source": "patent EP0830136B1",
  "about": "“NEW CRY[…] […]” (priority 1995, dated 1996)",
  "key": {"[1]": {"settings": "pH 11 / hydrolysis"}, "[2]": {"test_system": "human tumor cell lines KB and LoVo", "experiment": "In vitro cytotoxicity, KB and LoVo", "settings": "read-out: cytotoxicities IC50's"}, "SKOV3 cells": {"test_system": "SKOV3 cells", "experiment": "Cell proliferation assay (SRB staining), SKOV3", "assay_type": "cell-based, Human", "settings": "24 hours with IC50 doses"}, "SKVLB1 cells": {"test_system": "SKVLB1 cells", "experiment": "cells", "assay_type": "cell-based", "settings": "Homo sapiens, SKVLB1, 48 h, read-out: SKVLB1 IC50 (nM)", "description": "The Jurkat T cell leukemia line and A-10 rat aortic smooth muscle cells were obtained from the American Type Culture Collection and were cultured in BME containing 10% FBS and 50µg/mL gentamycin sulfate. […] Both cell lines were maintained in BME containing 10% FBS and 50µg/mL gentamycin sulfate.\nCell proliferation assays were performed as described by Skehan et al.^11 For Jurkat cells, cultures were treated with the indicated drugs as described in Skehan^11 and total cell numbers were determined by counting the cells in a hemacytometer. The percentage of cells in mitosis was determined by staining with 0.4% Giemsa in PBS followed by three rapid washes with PBS. At least 1000 cells per treatment were scored for the presence of mitotic figures and the mitotic index was calculated as the ratio of cells with mitotic figures to the total number of cells counted."}, "[3]": {"test_system": "Jurkat T cell leukemia line", "experiment": "Jurkat cell proliferation and mitotic index", "assay_type": "cell-based", "settings": "Homo sapiens; Jurkat cells, 24 hours; read-out: IC50s for inhibition of cell proliferation and accumulation of cells in mitosis"}, "[4]": {"test_system": "A-10 rat aortic smooth muscle cells", "experiment": "Immunofluorescence of cytoskeleton in A-10 cells", "assay_type": "cell-based", "description": "A-10 cells were grown to near-confluency on glass coverslips in BME/10% FBS. Compounds in PBS were added to the indicated final concentrations and cells were incubated for an additional 24 hours. For the staining of microtubules and intermediate filaments, the cells were fixed with cold methanol and incubated with PBS containing 10% calf serum to block nonspecific binding sites. Cells were then incubated at 37°C for 60 min with either monoclonal anti-β-tubulin or with monoclonal anti-vimentin at dilutions recommended by the manufacturer. Bound primary antibodies were subsequently visualized by a 45-minute incubation with fluorescein-conjugated rabbit antimouse IgG. The coverslips were mounted on microscope slides and the fluorescence patterns were examined and photographed using a Zeiss Photomicroscope ill equipped with epifluorescence optics for fluorescein. […] PBS containing 100nM TRITC-phalloidin was then added and the mixture was allowed to incubate for 45 min at 37° C. The cells were washed rapidly three times with PBS before the coverslips were mounted and immediately photographed as described above."}, "[5]": {"settings": "A-10 cells, 24 hours, 2µM cytochalasin B, 100nM vinblastine or 10nM cryptophycin compounds"}},
  "note": "“Also recorded” adds a separate entry of the source.",
  "data": [
    {"smiles": "COc1ccc(C[C@H]2NC(=O)/C=C/C[C@@H]([C@H](C)[C@H]3O[C@@H]3c3ccccc3)OC(=O)[C@H](CC(C)C)OC(=O)C(C)(C)CNC2=O)cc1Cl", "note": "[Cryptophycin 52]", "values": [
      {"measurement": "stability of the C-D ester bond", "setting": "[1]", "value": "stable at pH 11"},
      {"measurement": "total dosage required in vivo relative to comparator", "setting": "tumors implanted in mice; mouse, in vivo", "value": "roughly three times the total dosage compared with Cryptophycin 1"},
      {"measurement": "in vivo antitumor activity", "setting": "tumors implanted in mice; statement in words", "value": "active in vivo"},
      {"measurement": "IC50", "setting": "[2]", "value": "0.043 to 0.07", "unit": "nM"}
    ]},
    {"smiles": "CC[C@]1(O)C[C@@H]2CN(CCc3c([nH]c4ccccc34)[C@@](C(=O)OC)(c3cc4c(cc3OC)N(C)[C@H]3[C@@](O)(C(=O)OC)[C@H](OC(C)=O)[C@]5(CC)C=CCN6CC[C@]43[C@@H]65)C2)C1", "note": "[vinblastine]", "values": [
      {"measurement": "increase in cell number during treatment", "setting": "SKOV3 cells", "value": 25, "unit": "%"},
      {"measurement": "increase in cell numbers in the 24 hours following removal of the drug", "setting": "SKOV3 cells; then drug-free medium", "value": "approximately 3 fold"},
      {"measurement": "IC50", "setting": "SKVLB1 cells", "value": 4200, "unit": "nM"},
      {"measurement": "IC50", "setting": "[3]", "value": 8, "unit": "nM"},
      {"measurement": "microtubule depolymerization after taxol pretreatment", "setting": "[4]", "value": "pretreatment with taxol prevented microtubule depolymerization"},
      {"measurement": "microtubule repolymerization 1 hour after removal of drug", "setting": "[4]; A-10 cells, 100nM vinblastine or 10nM cryptophycins for 24 hr, then drug-free medium 1 hour", "value": "significant levels of microtubules"},
      {"measurement": "microtubule repolymerization 24 hours after removal of drug", "setting": "[4]; A-10 cells, 100nM vinblastine or 10nM cryptophycins for 24 hr, then drug-free medium 24 hours", "value": "complete morphological recovery"},
      {"measurement": "effect on microfilaments", "setting": "[4]; [5]", "value": "Neither compound affected microfilawent organization"},
      {"measurement": "effect on microtubules", "setting": "[4]; [5]", "value": "marked depletion of microtubules; also recorded: complete depolymerization of microtubules; also recorded: complete microtubule depolymerization"},
      {"measurement": "effect on vimentin intermediate filaments", "setting": "[4]; [5]", "value": "collapsed, forming concentric rings around the nuclei"}
    ]}
  ]
}
